From ChEMBL document CHEMBL1201862, “PubChem BioAssay data set” (2004)
Activity calls are given as the source filed them.

Key:
[1] = P. falciparum Dd2 growth inhibitors, dose response, SYBR Green, dry powder samples (AID 1159566); assay type: functional, cell-based;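 further: potency for growth inhibition with lower SYBR green DNA signal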
[2] = P. falciparum Dd2 growth inhibitors, dose response, SYBR Green, cherry-picked samples (AID 1159567); assay type: functional, cell-based
[3] = P. falciparum ATP4 D1247Y mutant growth inhibitors, dose response, NITD609-resistant line, SYBR Green, dry powder (AID 1159571); assay type: functional, cell-based;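 further: parasites synchronized at ring stage by sorbitol before testing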
[4] = intracellular Trypanosoma cruzi inhibitors in host cells – cell-based, plate reader, cherry-pick samples, set 3, dose response (AID 651818); assay type: functional;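 further: compounds incubated with infected cells for about four days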
[5] = P. falciparum 3D7-ScDHODH growth inhibitors, dose response, SYBR Green, dry powder samples (AID 1159570); assay type: functional, cell-based;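 further: parasite growth measured after 72 hours of compound exposure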
[6] = A549 cell cytotoxicity, dose response, cytotoxicity control, plate reader, cherry-pick, antagonist series (AID 743412); assay type: functional, cell-based
[7] = MC4R antagonists, dose response, counter-screen for LGR2 antagonist project, cell-based, plate reader, cherry pick (AID 743444); assay type: functional;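 further: transfected HEK 293 cells stimulated with alpha-MSH peptide; potency of inhibitors of the alpha-MSH evoked signal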
[8] = HEK293 cell cytotoxicity, dose response, cytotoxicity control, plate reader, cherry-picked samples (AID 743446); assay type: functional, cell-based
[9] = HepG2 cell cytotoxicity, dose response, cytotoxicity control, plate reader, cherry-pick, antagonist series (AID 743416); assay type: functional, cell-based
[10] = LGR2 antagonists, dose response, cell-based, HEK293, CRE-luciferase reporter, cherry pick, set 2 (AID 743343); assay type: functional;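 further: transfected cells were stimulated with diluted bursicon conditioned medium after compound addition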
Protein Tat = target: T1, Protein Tat (Human immunodeficiency virus type 1 group M subtype B (isolate HXB2)(HIV-1), UniProt P04608); assay type: functional;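 further: tat binding to TAR RNA read out by fluorescence polarization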
T1 sequence (P04608 whole entry): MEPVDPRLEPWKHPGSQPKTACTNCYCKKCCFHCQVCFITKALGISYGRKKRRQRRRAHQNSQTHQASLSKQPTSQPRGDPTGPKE

Mu-type opioid receptor = Mu-type opioid receptor (Homo sapiens, UniProt P35372); assay type: functional, cell-based;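 further: U2OS cells with beta-arrestin recruitment to OPRM1 by beta-gal complementation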
Mu-type opioid receptor, sequence (P35372 whole entry): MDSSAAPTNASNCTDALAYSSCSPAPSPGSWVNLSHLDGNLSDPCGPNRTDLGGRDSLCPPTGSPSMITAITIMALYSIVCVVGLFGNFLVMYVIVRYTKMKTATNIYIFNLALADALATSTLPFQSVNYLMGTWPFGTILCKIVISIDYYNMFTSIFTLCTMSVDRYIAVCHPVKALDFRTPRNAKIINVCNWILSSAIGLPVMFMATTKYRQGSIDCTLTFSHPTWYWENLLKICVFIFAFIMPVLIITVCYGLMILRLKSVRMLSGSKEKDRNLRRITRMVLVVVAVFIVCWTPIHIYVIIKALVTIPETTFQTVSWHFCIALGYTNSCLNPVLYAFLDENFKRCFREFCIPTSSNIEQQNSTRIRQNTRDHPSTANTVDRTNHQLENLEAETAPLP

[11] = target: T2, Rac GTPase-activating protein 1 (Homo sapiens, UniProt Q9H0H5); assay: MgcRacGAP GTPase-activating activity inhibitors, confirmation, biochemical, ADP Hunter fluorescence, primary and confirmatory (AID 624330); assay type: functional
T2 sequence (Q9H0H5 whole entry): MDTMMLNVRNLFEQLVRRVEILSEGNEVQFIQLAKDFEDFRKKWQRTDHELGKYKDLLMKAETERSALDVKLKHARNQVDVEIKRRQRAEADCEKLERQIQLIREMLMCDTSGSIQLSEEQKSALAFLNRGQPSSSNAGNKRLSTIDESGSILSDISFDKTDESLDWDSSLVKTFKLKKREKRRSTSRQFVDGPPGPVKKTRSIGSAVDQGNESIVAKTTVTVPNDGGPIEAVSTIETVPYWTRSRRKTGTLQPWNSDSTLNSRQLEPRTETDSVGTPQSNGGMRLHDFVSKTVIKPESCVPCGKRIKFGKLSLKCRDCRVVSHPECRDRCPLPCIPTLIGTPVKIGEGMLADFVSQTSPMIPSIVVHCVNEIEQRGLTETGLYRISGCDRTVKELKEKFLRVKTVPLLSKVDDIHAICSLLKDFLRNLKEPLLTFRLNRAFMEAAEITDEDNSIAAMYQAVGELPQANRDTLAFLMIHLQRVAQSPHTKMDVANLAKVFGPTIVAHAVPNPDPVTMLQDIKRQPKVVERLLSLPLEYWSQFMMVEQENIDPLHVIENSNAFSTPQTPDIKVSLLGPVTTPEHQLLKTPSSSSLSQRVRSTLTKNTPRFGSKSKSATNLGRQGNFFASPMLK

[12] = target: 5-hydroxytryptamine receptor 2A (Mus musculus, UniProt P35363); assay type: functional, cell-based;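 further: CHO-K1 cells with tagged receptor and beta-arrestin; agonist potency measured as compound-induced activation of the receptor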
5-hydroxytryptamine receptor 2A, sequence (P35363 whole entry): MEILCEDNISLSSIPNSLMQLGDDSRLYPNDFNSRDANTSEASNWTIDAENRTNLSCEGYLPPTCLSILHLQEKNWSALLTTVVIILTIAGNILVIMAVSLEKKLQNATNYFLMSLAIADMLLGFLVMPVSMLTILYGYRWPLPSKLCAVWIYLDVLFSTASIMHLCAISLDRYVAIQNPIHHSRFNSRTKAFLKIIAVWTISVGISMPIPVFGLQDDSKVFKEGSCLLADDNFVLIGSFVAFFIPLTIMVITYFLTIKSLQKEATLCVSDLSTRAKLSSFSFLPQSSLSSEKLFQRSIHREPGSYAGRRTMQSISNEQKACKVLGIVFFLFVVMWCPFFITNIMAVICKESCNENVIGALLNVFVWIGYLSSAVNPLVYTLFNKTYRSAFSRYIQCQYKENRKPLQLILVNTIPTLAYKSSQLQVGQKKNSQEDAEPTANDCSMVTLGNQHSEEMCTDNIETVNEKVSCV

[13] = Luminescence-based cell-based high throughput dose response assay to identify activators of the DAF-12 from the parasite S. stercoralis (ssDAF-12).; assay type: functional
[14] = target: T3, Oxysterols receptor LXR-beta (Homo sapiens, UniProt P55055); assay type: functional, cell-based;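 further: Cell-based luminescence dose-response assay of agonist activity at LXR, run as a confirmatory counterscreen to a daf-12 agonist screen; agonist potency from rising luciferase signal of a Gal4-LXR reporter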
T3 sequence (P55055 whole entry): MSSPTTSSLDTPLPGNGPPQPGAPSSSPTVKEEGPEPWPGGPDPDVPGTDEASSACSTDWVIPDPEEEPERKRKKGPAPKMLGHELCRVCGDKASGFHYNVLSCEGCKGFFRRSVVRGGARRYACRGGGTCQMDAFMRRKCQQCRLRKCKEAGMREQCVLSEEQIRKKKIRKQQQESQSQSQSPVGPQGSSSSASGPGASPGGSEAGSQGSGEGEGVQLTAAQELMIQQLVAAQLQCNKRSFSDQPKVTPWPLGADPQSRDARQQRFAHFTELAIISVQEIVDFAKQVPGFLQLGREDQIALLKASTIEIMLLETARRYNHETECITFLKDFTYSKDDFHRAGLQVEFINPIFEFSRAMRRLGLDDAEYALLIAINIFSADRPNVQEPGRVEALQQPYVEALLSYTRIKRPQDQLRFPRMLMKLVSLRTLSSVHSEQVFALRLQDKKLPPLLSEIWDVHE

[15] = target: T3, Oxysterols receptor LXR-beta; assay: LXR agonists, Gal4 luciferase reporter, dose response, counter-screen for ssDAF-12 agonist project, cell-based, luminescence, HEK293, S. stercoralis campaign (AID 720737); assay type: functional; details: read-out: IC50 (the source's name)
[16] = HepG2 cell cytotoxicity, dose response, cytotoxicity control, cherry-picked samples (AID 1159577); assay type: functional, cell-based
[17] = Luminescence Cell-Based Dose Confirmation HTS to Identify Inhibitors of Platelet Dense Granule Release. [Related pubchem assays: 1663 (Primary HTS), 1678 (Summary of Project)]; assay type: functional
HEK293 = assay: inhibitors of LMP1-driven NF-kB reporter, dose response, cell-based, HEK293, luciferase, cherry-pick (AID 588343); assay type: functional; details: Homo sapiens
[18] = target: Luciferin 4-monooxygenase (Photinus pyralis, UniProt P08659); assay: firefly luciferase enzyme inhibitors, dose response, biochemical, luminescence (AID 1891)
Luciferin 4-monooxygenase, sequence (P08659 whole entry): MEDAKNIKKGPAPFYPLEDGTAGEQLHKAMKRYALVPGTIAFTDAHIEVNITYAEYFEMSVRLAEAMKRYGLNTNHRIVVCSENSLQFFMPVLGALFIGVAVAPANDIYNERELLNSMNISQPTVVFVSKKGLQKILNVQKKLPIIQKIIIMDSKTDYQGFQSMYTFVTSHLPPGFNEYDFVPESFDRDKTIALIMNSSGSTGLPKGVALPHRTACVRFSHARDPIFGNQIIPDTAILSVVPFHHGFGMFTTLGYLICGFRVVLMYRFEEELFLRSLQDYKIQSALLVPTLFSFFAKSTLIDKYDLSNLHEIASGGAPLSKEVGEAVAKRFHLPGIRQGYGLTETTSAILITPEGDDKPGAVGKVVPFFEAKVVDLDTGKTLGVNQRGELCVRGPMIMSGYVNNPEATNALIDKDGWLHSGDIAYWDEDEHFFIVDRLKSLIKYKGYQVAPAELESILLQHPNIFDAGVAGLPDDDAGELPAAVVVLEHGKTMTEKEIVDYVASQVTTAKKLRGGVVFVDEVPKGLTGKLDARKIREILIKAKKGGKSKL

Bcl-2-like protein 10 = target: T4, Bcl-2-like protein 10 (Homo sapiens, UniProt Q9HD36); assay: displacers of TR3 peptide from Bcl-B, primary screen, selectivity assay for Bfl-1 inhibitor project, biochemical, fluorescence polarization, FITC-TR3 peptide (AID 748);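 further: fluorescence polarization from a fluorescein-labelled TR3 peptide binding purified Bcl-B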
T4 sequence (Q9HD36 whole entry): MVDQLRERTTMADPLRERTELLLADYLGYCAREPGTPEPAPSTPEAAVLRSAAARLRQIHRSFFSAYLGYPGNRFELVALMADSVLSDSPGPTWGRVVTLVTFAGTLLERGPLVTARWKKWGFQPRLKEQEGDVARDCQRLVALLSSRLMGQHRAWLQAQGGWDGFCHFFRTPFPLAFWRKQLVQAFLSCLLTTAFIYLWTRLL

Prothrombin = Prothrombin (Homo sapiens, UniProt P00734); assay: Thrombin 1536 HTS Dose Response Confirmation. [Related pubchem assays: 1046 (Thrombin 1536 HTS; hits were confirmed in this assay)]; assay type: functional

## C[C@@H]1CN([C@H](C)CO)C(=O)c2cccc(NC(=O)Nc3cccc4ccccc34)c2O[C@@H]1CN(C)C(=O)Nc1ccc(C(F)(F)F)cc1
[1]
  AC50: 1.37 µM (active)
[2]
  AC50: 1.59 µM (active)
[3]
  AC50: 1.21 µM (active)
[4]
  AC50: 7.71 µM (active)
[5]
  AC50: 1.15 µM (active)

## N#C[C@@H]1[C@H](c2ccc(C#Cc3ccc(F)cc3)cc2)[C@@H](CO)N1C(=O)C1CCCC1
[6]
  AC50: 19.1 µM (active)
[7]
  AC50: 13.1 µM (active)
[8]
  AC50: 50.9 µM (active)
[9]
  AC50: 18.5 µM (active)
[10]
  AC50: 15.8 µM (active)

## Cc1cc(C)c(S(=O)(=O)NCC2CCC(C(=O)N3CCC4(CC3)OCCO4)CC2)c(C)c1 (centres undefined)
Protein Tat
  IC50: > 100 µM (active)

## Cc1ccc(S(=O)(=O)N2CCOCC2)cc1NC(=O)CNCc1cccnc1
Mu-type opioid receptor
  EC50: 92.5 µM (inactive)
[11]
  IC50: 108 µM (active)
[12]
  EC50: 6.05 µM (active)

## COc1ccc(-c2cn3ccc4ccccc4c3n2)cc1
[13]
  IC50: > 67.5 µM (inactive)
[14]
  EC50: > 67.5 µM (inactive)
cells
  EC50: > 67.5 µM (inactive)
[15]
  EC50: > 67.5 µM (inactive)

## C[C@@H]1CN([C@@H](C)CO)C(=O)c2cc(C#CCc3ccccc3)cnc2O[C@H]1CN(C)CC1CCCC1
[2]
  AC50: 1.31 µM (active)
[16]
  AC50: 14.2 µM (active)

## CCOc1ccc(C(=O)Nc2cc(C)ccn2)cc1
[17]
  EC50: 2.45 µM (active)
[6]
  AC50: 21 µM (active)
[7]
  AC50: 2.97 µM (active)
[8]
  AC50: 22.1 µM (active)
[9]
  AC50: 24.6 µM (active)
HEK293
  AC50: 2.17 µM (active)
[18]
  EC50: 1.19 µM (active)
[10]
  AC50: 4.55 µM (active)

## COc1cc(-c2nc3ccccc3c(=O)n2N)cc(OC)c1OC
[13]
  IC50: > 67.5 µM (inactive)
[15]
  EC50: > 67.5 µM (inactive)

## Cc1cc[n+]2c3c(cccc13)CCC2
Bcl-2-like protein 10
  IC50: 63.2 µM (inactive)

## COc1cccc(-c2cc(C(=O)Nc3c(C)nn(Cc4ccccc4)c3C)no2)c1
Prothrombin
  IC50: > 50 µM (not active)

## CCCNC(=O)N1[C@H](CO)[C@H](c2ccc(C3=CCCCC3)cc2)[C@H]1CNC(C)C
[2]
  AC50: 5.26 µM (active)
[16]
  AC50: 39.6 µM (active)
